Series [1] concerns the target bovine serum albumin (Bos taurus, UniProt P02769). Put plainly: Serum protein binding assay (ultrafiltration, UV-Vis). The class given is in vitro ADME. Particulars: bovine serum albumin 8 wt.% in PBS, 1 hour at room temperature, 30 kDa filter. On the procedure:
A 5 mM stock solution of the iron chelate complex under investigation was prepared in PBS, and the UV/visible spectrum of the solution was acquired to determine the wavelength of the absorbance maximum (λmax). An aliquot of the stock solution (500 μL) was added to a PBS solution (2 mL) containing bovine serum albumin (8 wt.%). A control sample was prepared by diluting a second aliquot of the stock solution (500 μL) with PBS (2 mL). The samples were vortexed briefly and then allowed to stand for 1 hour at room temperature. At the stipulated time, the resulting solutions were transferred to Amicon Ultra filters (4 mL, MWCO = 30 kDa). The solutions were centrifuged (3000 rcf, 15 min), and the permeate was taken directly for UV-Vis measurement. The wavelength and intensity of λmax in the visible region for the solution were recorded. The relative amount of free and protein-bound agent was calculated from the λmax intensity ratio of the assay to control samples.

A short description of series [2]: Relaxivity determination (r1, r2) on Bruker minispec mq60. The class given is physicochemical. Particulars: PBS, 60 MHz, 40°C. On the procedure:
A stock solution having a concentration of 1 mM of the CA of interest was prepared in phosphate-buffered saline (PBS), and the iron concentration was verified by elemental analysis. Separate 0.75 mM, 0.50 mM, and 0.25 mM samples were prepared from the stock by dilution in PBS, and T1 and T2 relaxations times were recorded in triplicate for each sample on a Bruker minispec mq60 instrument (60 MHz, 40°C). The relaxivities (r1 and r2) were obtained as the gradient of 1/Tx (x = 1, 2) plotted against Fe chelate concentration following linear least squares regression analysis.

Series [3] can be described thus: Ascorbic acid oxidation assay (redox stability). Particulars: iron chelate 20 μM (30 mol%), ascorbic acid 67 μM in PBS, 45 minutes, air oxidation. On the procedure: The UV-Vis spectrum of an ascorbic acid solution (67 μM and 12 μg/mL) in PBS (3 mL) was recorded. The absorbance intensity at λmax = 265 nm was observed. An aliquot (30 μL) of the iron chelate of ethylenediaminetetraacetic acid (Fe-EDTA) in PBS (2 mM, 0.7 mg/mL) was added to afford a catalytic quantity of Fe-EDTA (20 μM, 30 mol%) with respect to ascorbic acid. The absorbance intensity (λmax = 265 nm) was recorded at intervals of 1 minute for a period of 45 minutes and the data normalized to the t0 absorbance. The experiment was then repeated identically using a solution of the iron chelate complex under investigation (20 μM, 30 mol%), and the results were plotted as a function of the percent initial ascorbic acid signal versus elapsed time (min).

On the set-up of series [4]: method as in PMID 16230904. Particulars: in water at 1.5 T; cited from earlier work.
The conditions of series [5]: cited from earlier work.

Molecules are shown by their SMILES. Where two headings read alike, the source gives them in different places.

bovine serum albumin, sequence (P02769 25-607): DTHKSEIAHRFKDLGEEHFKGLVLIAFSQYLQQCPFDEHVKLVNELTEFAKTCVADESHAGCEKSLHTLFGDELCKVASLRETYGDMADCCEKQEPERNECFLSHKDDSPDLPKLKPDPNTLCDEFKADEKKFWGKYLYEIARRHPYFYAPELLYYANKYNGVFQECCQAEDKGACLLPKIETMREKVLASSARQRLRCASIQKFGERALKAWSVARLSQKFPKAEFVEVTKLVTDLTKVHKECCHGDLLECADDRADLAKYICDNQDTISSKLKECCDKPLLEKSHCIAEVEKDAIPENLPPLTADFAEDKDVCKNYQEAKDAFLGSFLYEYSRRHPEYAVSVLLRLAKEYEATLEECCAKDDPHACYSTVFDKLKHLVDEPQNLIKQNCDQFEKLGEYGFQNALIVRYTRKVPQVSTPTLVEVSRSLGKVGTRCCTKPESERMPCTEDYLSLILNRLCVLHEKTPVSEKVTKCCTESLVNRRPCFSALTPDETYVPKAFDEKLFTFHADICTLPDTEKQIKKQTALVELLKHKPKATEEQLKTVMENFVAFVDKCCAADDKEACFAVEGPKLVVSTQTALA

In series [1], `O=C1CN2CCN3CC(=O)[O][Fe]([O]1)([O]c1ccccc1C2)[O]c1ccccc1C3` [Fe-1] yielded a Protein binding of 33%. The r1 in series [2] was found to be 0.49 mM⁻¹ s⁻¹.
In turn, `O=P1(O)CN2CCN3Cc4ccccc4[O][Fe]([O]c4ccccc4C2)([O]1)[O]P(=O)(O)C3` [Fe-3] registered a Protein binding in series [1] of 49%. The compound also gave a r1 in series [2] of 1.3 mM⁻¹ s⁻¹. Besides, in series [3], the “pseudo-first-rate time constant for ascorbic acid consumption, relative to Fe-EDTA” value was less than 0.5%.
In series [2], `O=C1CN2CCN3CC(=O)[O][Fe]([O]1)([O]c1ccc(S(=O)(=O)O)cc1C2)[O]c1ccc(S(=O)(=O)O)cc1C3` [Fe-2] gave a r1 of 0.9 mM⁻¹ s⁻¹. In addition, the “pseudo-first-rate time constant for ascorbic acid consumption, relative to Fe-EDTA” value in series [3] is reported as less than 0.5%.
In the case of `CNC[C@H](O)[C@@H](O)[C@H](O)[C@H](O)CO.CNC[C@H](O)[C@@H](O)[C@H](O)[C@H](O)CO.O=C([O-])CN(CCN(CC(=O)[O-])CC(=O)O)CCN(CC(=O)[O-])CC(=O)O.[Gd+3]` [Gd-1, Gadopentetate dimeglumine], the r1 in series [4] is 3.3 mM⁻¹ s⁻¹.
For `O=P1(O)CN2CCN3Cc4cccc(CO)c4[O][Fe]([O]c4c(CO)cccc4C2)([O]1)[O]P(=O)(O)C3` [Fe-4], the Protein binding in series [1] was 20%. Also, the r1 in series [2] is 0.9 mM⁻¹ s⁻¹.
`O=C(O)CN(CCN(CC(=O)O)Cc1ccccc1O)Cc1ccccc1O` [HBED, N,N′-bis(2-hydroxyphenyl)ethylenediamine-N,N′-diacetic acid]: the “log K (Fe[III] binding)” value in series [5] is given as 39.7.

(Values after paper PMC6961518, “Fe-HBED Analogs: A Promising Class of Iron-Chelate Contrast Agents for Magnetic Resonance Imaging” (Contrast Media & Molecular Imaging, 2019).)
